{"source": "patent US11633414B2", "about": "“Nicotinoyl riboside compositions and methods of use” (Cornell University, priority 2005, dated 2023)", "key": {"[1]": {"test_system": "Mouse embryonic stem cells", "experiment": "Cell survival after mms treatment and passage with/without NAR (haemocytometry)", "type": "cell-based", "conditions": "mms 1 mM 3 hrs, NAR 1 mM, counted after two days", "method": "Mms (200 mM) was added to both flask #A and #B to make final concentration as 1 mM. After 3 hrs incubation, each cell culture (with/without NR treated) is passed to two new flasks with/without 1 mM of NAR. After two days incubation, count the culture survival in each of these 4 new flasks: mms/control media, mms/NAR media; mms+NAR/control media; mms+NAR/NAR media. It was found after mms treatment, the cultured cells are seriously damaged and only have a very low survival after passage. […] Cell counting by haemocytometry was used to determine survival versus cell number (see FIG. 4)."}, "[2]": {"test_system": "Mouse embryonic stem cells", "experiment": "Increase of cellular NAD+ levels in cells grown on nicotinamide riboside (NAR) enriched medium", "type": "cell-based", "method": "Mouse embryonic stem cells were plated onto cell culture flasks (250 mL, 75 cm^2) and grown to 50% confluence in 48 hours after passage. At 48 hours 2 flasks were set aside as controls and 2 flasks were used to determine effect of NAR on NAD+ biosynthesis. Cells were treated with 1M HClO4, and a specific amount of 180-NAM ([…]) and ^18O-NAD+. Samples were fractionated by HPLC and the fractions containing NAM and NAD+ were analyzed by ESI-MS and MALDI-MS respectively. Peak ratio (^16O/^18O) was used to quantitate NAM and NAD+ amounts in each sample. […] According to our measurement, the NAD+ level in NAR treated cells is 3886.6 pmoL/mg cell protein and nucleic acid content, and the NAD+ in control cells is only 1782.2 pmoL/mg cell protein and nucleic acid content. Cell protein and nucleic acid content were measured separately (see FIG. 3)."}, "[3]": {"test_system": "Mouse embryonic stem cells", "experiment": "Effects of statins on cell viability and mitigation of toxicity by nicotinamide riboside (cell counting and MTT assay)", "conditions": "for IC50: read-out: IC50 for statins in the absence of NR, apparently 7 days"}, "[4]": {"test_system": "Mouse embryonic stem cells", "experiment": "Effect of NAR on mms mediated cell death (trypan blue counting)", "type": "cell-based", "conditions": "media supplemented with NAR 1 mM, mms 1 mM (FIG. 2)", "method": "1000 units/mL], named from #1 to #7. […] Mms (200 mM) was added to flask #2, 3, 4, 5, 6, 7 to make final concentration as 1 mM. Cell flask #1 is kept as a control, and used for passage. After 3 hrs incubation, fresh media was changed for flask #4, 5, 6, 7. And Cell #2, and 3 are harvested. After 6 hrs treatment of mms, Cell #4, 5 are harvested. And Cell #6, 7 are harvested at 9 hrs treatment of mms. The harvest cells (living ones) are counted for the percentage of death with trypan blue (see FIG. 2)."}, "Hela cells": {"test_system": "Hela cells", "experiment": "NAD+ content in cells after treatment with nicotinate riboside derivatives (HPLC, MALDI-MS with 18O-NAD+ standard)", "type": "cell-based", "conditions": "for 16O-NAD+ / [NAD+]/10^6 cell: 24 hrs; for [NAD+]/10^6 cell: control 618", "method": "Synthesized compounds (NAR: Nicotinic acid riboside, O-ethyl-NR: ethyl-nicotinate riboside, Intermediate: TAENR, triacetyl-ethyl-nicotinate riboside, See FIG. 10) were added to the cells separately after 24 hours (no compound added for control). The cells were then incubated for another 24 hrs before harvest. Cells were trypsinized and an aliquot removed for counting. […] After mixing thoroughly, samples were pelleted and then neutralized with NaOH to make pH=7˜8. Samples were then centrifuged for 3 minutes and the supernatant (100 uL) was injected onto a C-18 column (Hitachi HPLC L2130 pump L2450 diode array detector) and separated to isolate the peak containing NAD+. The elution was collected during the NAD+ peak and the solution frozen and lyophilized."}, "[5]": {"type": "physicochemical", "method": "The synthesis of nicotinoyl riboside compounds was initiated with the preparation of a preferred intermediate, ethyl 1-[3,4-diacetyloxy-5-(acetyloxymethyl)oxolan-2-yl]-pyridine-3-carboxylate. Nicotinic acid riboside O-alkyl derivatives were prepared from there. Refluxing of the protected sugar, 1,2,3,5-tetra-O-acetyl-β-D-ribofuranose with ethyl nicotinate (1.2 equiv.) in methylene chloride under the catalysis of TMSOTf (1 equiv.) stereoselectively formed β-isomer in good yield (>90%). One of the advantages for this method is that there is no need to go through the silylation of nicotinamide. After evaporation of the solvent, ethyl 1-[3,4-diacetyloxy-5-(acetyloxymethyl)oxolan-2-yl]-pyridine-3-carboxylate could be used directly for the next step. […] Extraction of ethyl acetate from water layer could get rid of most non-polar side products and give 95% of pure products according to TLC. Ethyl 1-[3,4-diacetyloxy-5-(acetyloxymethyl)oxolan-2-yl]-pyridine-3-carboxylate was also treated with NaOCH3/MeOH at −20° C. to form O-methyl nicotinate riboside. Other O-alkyl nicotinate ribosides were prepared similarly. O-Alkyl nicotinate ribosides can be hydrolyzed with esterase (from porcine liver, sigma) at pH=7.0 to afford clean nicotinic acid riboside. Reverse HPLC was used to detect and purify products."}}, "note": "Entries after “also recorded” stand apart in the source; their conditions may differ. Where two headings read alike, the source gives them in different places.", "data": [{"smiles": "NC(=O)c1ccc[n+]([C@@H]2O[C@H](CO)C(O)C2O)c1", "note": "(stereo partly drawn) [NAR, β-nicotinamide riboside]", "values": [{"measurement": "culture survival after passage", "setting": "[1]", "value": "highest culture numbers"}, {"measurement": "NAD+ level", "setting": "[2]; NAR treated cells, control cells 1782.2", "value": "3886.6 pmoL/mg cell protein and nucleic acid content"}, {"measurement": "NAD+ concentration compared to the controls", "setting": "[2]; NAR treated embryonic stem cells vs controls", "value": "higher concentration of NAD+; also recorded: increase of intracellular levels of nicotinamide adenine dinucleotide (NAD+)"}, {"measurement": "mitigation of statin toxicity", "setting": "[3]; NR 500 μM in cell media, lovastatin, 2, 4 and 7 days, listed as NR", "value": "significantly reduces the toxicity of statin; also recorded: mitigates statin toxicity in a significant way"}, {"measurement": "increase of IC50 of the statin in the presence of NR", "setting": "[3]; NR 500 μM, after 4 and 7 days treatment", "value": "two to three"}, {"measurement": "cell viability in the NR treated group versus no NR", "setting": "[3]; cell counting and MTT assay, at virtually every statin concentration", "value": "significantly higher"}, {"measurement": "viable cells at the highest statin concentration", "setting": "[3]; statin 10 μM, NR treated group, cell counting and MTT assay", "value": "significant percentages of viable cells remain"}, {"measurement": "cell survival", "setting": "[4]", "value": "improvement of cell survival"}]}, {"smiles": "NC(=O)c1ccc[n+]([C@@H]2O[C@H](CO)[C@@H](O)[C@H]2O)c1", "note": "[NAR, β-nicotinamide riboside]", "values": [{"measurement": "16O-NAD+", "setting": "Hela cells; 669 uM", "value": 2201.2, "unit": "pmol"}, {"measurement": "[NAD+]/10^6 cell", "setting": "Hela cells; 669 uM", "value": 1079, "unit": "pmoL"}, {"measurement": "water solubility", "setting": "[5]", "value": "extremely water-soluble"}]}, {"smiles": "CCOC(=O)c1ccc[n+]([C@@H]2O[C@H](CO)[C@@H](O)[C@H]2O)c1", "note": "[O-ethyl NR, O-ethyl β-nicotinic riboside]", "values": [{"measurement": "16O-NAD+", "setting": "Hela cells; 500 uM", "value": 1084.1, "unit": "pmol"}, {"measurement": "[NAD+]/10^6 cell", "setting": "Hela cells; 500 uM", "value": 1004, "unit": "pmoL"}, {"measurement": "16O-NAD+", "setting": "Hela cells; 803 uM", "value": 2622.7, "unit": "pmol"}, {"measurement": "[NAD+]/10^6 cell", "setting": "Hela cells; 803 uM", "value": 2242, "unit": "pmoL"}, {"measurement": "increase over the control NAD+ content", "setting": "Hela cells; 500 micromolar", "value": 62, "unit": "%"}, {"measurement": "NAD+ concentration in cells", "setting": "Hela cells; 500 micromolar, untreated cells 618", "value": 1004, "unit": "μmol per million cells"}, {"measurement": "increase in NAD+ concentration", "setting": "Hela cells; 800 micromolar", "value": "approximately three"}]}, {"smiles": "CCOC(=O)c1ccc[n+]([C@@H]2O[C@H](COC(C)=O)C(OC(C)=O)[C@@H]2OC(C)=O)c1", "note": "(stereo partly shown) [TAENR, ethyl 1-[3,4-diacetyloxy-5-(acetyloxymethyl)oxolan-2-yl]-pyridine-3-carboxylate]", "values": [{"measurement": "16O-NAD+", "setting": "Hela cells; 750 uM", "value": 4432.2, "unit": "pmol"}, {"measurement": "[NAD+]/10^6 cell", "setting": "Hela cells; 750 uM", "value": 2052, "unit": "pmoL"}, {"measurement": "increase of NAD+ concentrations in cells", "setting": "Hela cells; concentration of Table 3 (750 uM)", "value": "three"}]}, {"smiles": "O=C(O)c1ccc[n+]([C@@H]2O[C@H](CO)C(O)C2O)c1", "note": "(stereo partly drawn) [nicotinic acid riboside, β-Nicotinic acid riboside]", "values": [{"measurement": "increase of NAD+ concentrations in cells", "setting": "Hela cells; concentrations of Table 3", "value": 60, "unit": "%"}]}, {"smiles": "CC[C@H](C)C(=O)O[C@H]1C[C@@H](C)C=C2C=C[C@H](C)[C@H](CC[C@@H]3C[C@@H](O)CC(=O)O3)[C@H]21", "note": "[statin, lovastatin, reference compound]", "values": [{"measurement": "IC50", "setting": "[3]; determined by MTT assay", "value": 0.216, "unit": "µM"}, {"measurement": "IC50", "setting": "[3]; determined by cell counting", "value": 0.248, "unit": "µM"}, {"measurement": "cell viability at the highest statin concentration", "setting": "[3]; statin 10 μM, no NR group", "value": "almost completely non-viable"}]}]}
